System: 15 kinases (ABL1, AURKA, CDK5/p35, CSF1R, FGFR1, FGFR2, FLT4, KDR, LYN B, MAP4K2, MAP4K4, PDGFRA, PTK2, RET, RPS6KB1)
Experiment: Z'-LYTE SelectScreen biochemical kinase panel: count of kinases inhibited over all 15 kinases tested
Settings: 10 μmolar compound concentration; [ATP] Km app; out of 15 kinases tested

Row | SMILES | No. of kinases with >80% inhibition
1 | Fc1cccc(-c2cccn3nc(Nc4ccc5[nH]cnc5c4)nc23)c1 [Cpd. 293 in WO09155551, reference compound] | 15/15
2 | CC1(C)NC(=O)c2ccc(Nc3nc4c(-c5cccc(F)c5)cccn4n3)cc21 [Cpd. 302 in WO09155551, reference compound] | 15/15
3 | CC1(C)C(=O)Nc2ccc(Nc3nc4c(-c5cccc(F)c5)cccn4n3)cc21 [Cpd. 263 in WO09155551, reference compound] | 15/15

Source: US11339161B2, “Triazolo pyridines as modulators of gamma-secretase” (Boehringer Ingelheim International GmbH, priority 2017, dated 2022)
